According to article PMC10982999, “Structure-Guided Design and Optimization of Covalent VHL-Targeted Sulfonyl Fluoride PROTACs” (Journal of Medicinal Chemistry, 2024):

Assays:
[1] = biological target: T1, AR (AR-HiBiT LNCaP cells) (Homo sapiens, UniProt P10275, T878A); assay: AR HiBiT degradation assay; format: cell-based; settings: for Dmax / DC50: LNCaP; for Dmax: read-out: Dmax (AR degradation); for AR degradation in presence of MLN4924: MLN4924 1 μM 3 h pretreatment, then compound 18 h; for AR degradation in presence of epoxomicin: epoxomicin 1 μM 3 h pretreatment, then compound 16 h; for DC50: read-out: DC50 (AR degradation), 16 h
T1 construct: host or cells: AR-HiBiT KI LNCaP
T1 sequence (P10275 1-920 T878A): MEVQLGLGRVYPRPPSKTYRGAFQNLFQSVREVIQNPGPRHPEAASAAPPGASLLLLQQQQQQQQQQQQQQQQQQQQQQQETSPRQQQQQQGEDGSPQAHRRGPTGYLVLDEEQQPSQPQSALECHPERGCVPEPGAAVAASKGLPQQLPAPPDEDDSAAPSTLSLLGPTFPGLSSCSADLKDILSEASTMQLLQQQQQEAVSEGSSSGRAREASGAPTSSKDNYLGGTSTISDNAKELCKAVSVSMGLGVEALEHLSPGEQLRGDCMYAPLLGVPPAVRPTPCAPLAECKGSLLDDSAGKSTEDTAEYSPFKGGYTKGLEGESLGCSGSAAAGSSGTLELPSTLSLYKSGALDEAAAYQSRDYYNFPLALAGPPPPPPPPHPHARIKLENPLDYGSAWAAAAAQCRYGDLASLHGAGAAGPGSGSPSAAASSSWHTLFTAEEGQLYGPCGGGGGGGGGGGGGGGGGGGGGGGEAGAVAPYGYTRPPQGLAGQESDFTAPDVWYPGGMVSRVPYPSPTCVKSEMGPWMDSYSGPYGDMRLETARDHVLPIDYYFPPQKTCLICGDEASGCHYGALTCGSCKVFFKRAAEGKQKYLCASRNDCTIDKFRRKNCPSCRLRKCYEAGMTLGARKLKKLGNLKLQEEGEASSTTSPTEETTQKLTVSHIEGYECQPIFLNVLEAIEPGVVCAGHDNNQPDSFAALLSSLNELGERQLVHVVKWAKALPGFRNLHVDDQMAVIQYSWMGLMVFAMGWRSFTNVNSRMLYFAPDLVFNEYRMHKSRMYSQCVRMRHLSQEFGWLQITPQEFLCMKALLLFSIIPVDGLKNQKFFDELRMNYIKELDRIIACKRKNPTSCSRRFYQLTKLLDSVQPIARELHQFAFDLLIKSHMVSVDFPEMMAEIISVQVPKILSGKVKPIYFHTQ
Experimental: Cellular BRD4/AR HiBiT assay
The HiBiT tagged cells were seeded at 10,000 cells per well in a 384-well plate (Thermo Scientific, 164610) at 25 µL per well in DMEM media containing 10% FBS and incubated overnight. Compounds were dispensed using D300e Digital Dispenser (HP) and normalized to 0.1% DMSO. Cells were pre-treated with Epoxomicin or MLN4924 for 3 h before treatment […]
Nano -Glo HiBiT lytic detection assay was performed as described in the manufacturer protocol (Promega). 25 µL of premixed detection reagent was added to each well of the 384 well assay plate and incubated for 15 min on an orbital shaker (at 600 RPM), and luminescence was read using a PHERAstar FS plate reader (BMG Labtech). Corresponding background RLU values were subtracted from DMSO control values and the percentage of protein (%) of were then calculated against […]
DMSO-treated controls. […]
1:1000 WB), Tubulin (Sigma #4967S 1:5000 WB).

AR-HiBiT LNCaP cells = settings: 16 h, 75 μM-1 pM

Row | SMILES | Dmax [1] [%] | AR degradation in presence of MLN4924 [1] | AR degradation in presence of epoxomicin [1] | DC50 [1] [nM] | cytotoxicity (CellTiter-Glo) (AR-HiBiT LNCaP cells)
1 | Cc1cc([C@H](C(=O)N2C[C@H](S(=O)(=O)F)C[C@H]2C(=O)N[C@@H](CC(=O)N2CCC(C#Cc3ccc(C(=O)N[C@H]4C(C)(C)[C@H](Oc5ccc(C#N)c(Cl)c5)C4(C)C)cc3)CC2)c2ccc(-c3scnc3C)cc2)C(C)C)on1 [AR2-VHL-SF2, (3R,5S)-5-(((S)-3-(4-((4-(((1r,3r)-3-(3-Chloro-4-cyanophenoxy)-2,2,4,4-tetramethylcyclobutyl)-carbamoyl)phenyl)ethynyl)piperidin-1-yl)-1-(4-(4-methylthiazol-5-yl)phenyl)-3-oxopropyl)-carbamoyl)-1-((R)-3-methyl-2-(3-methylisoxazol-5-yl)butanoyl)pyrrolidine-3-sulfonyl fluoride] | 59 | AR degradation blockade | AR degradation blockade | 212 | did not exhibit cytotoxicity
2 | Cc1cc([C@H](C(=O)N2C[C@H](S(=O)(=O)F)C[C@H]2C(=O)N[C@@H](CC(=O)N2CCC(C#Cc3ccc(C(=O)N[C@H]4C(C)(C)[C@H](Oc5ccc(C#N)c(C(F)(F)F)c5)C4(C)C)cc3)CC2)c2ccc(-c3scnc3C)cc2)C(C)C)on1 [AR-VHL-SF2, (3R,5S)-5-(((S)-3-(4-((4-(((1r,3r)-3-(4-Cyano-3-(trifluoromethyl)phenoxy)-2,2,4,4-tetramethyl-cyclobutyl)carbamoyl)phenyl)ethynyl)piperidin-1-yl)-1-(4-(4-methylthiazol-5-yl)phenyl)-3-oxo-propyl)carbamoyl)-1-((R)-3-methyl-2-(3-methylisoxazol-5-yl)butanoyl)pyrrolidine-3-sulfonyl fluoride] | 54 | AR degradation blockade | AR degradation blockade | 527 | did not exhibit cytotoxicity
